Values after ≈ are worked out from the molar mass of the structure shown. Like-named read-outs stand apart in the source and are kept apart here.
Experiments:
[1] = test system: S. aureus; assay: MIC by twofold serial dilution; format: cell-based, Staphylococcus aureus (ATCC 12600); settings: Staphylococcus aureus; Gram-positive; read-out: Minimum inhibitory concentration (MIC), S. aureus
Experimental: (§1) The antibacterial efficacy of compounds 11b, 11e, and 12b was evaluated against Gram-positive bacteria (S. aureus and B. subtilis) and Gram-negative bacteria (E. coli and P. aeruginosa). Table 5 presents the MICs (nM) of these compounds against the evaluated bacteria, utilizing ciprofloxacin as the reference drug, determined through a twofold serial dilution approach on a 96-well microtiter plate ([Frejat F. O. et al., 2022]).
as §1, with “The” for “Table 5 presents the”, “the tested” for “these”, “bacteria were” for “bacteria, utilizing ciprofloxacin as the reference drug,”, “2022]). See Appendix A for more details.” for “2022]).”
(§2) 4.2. Antimicrobial activity
(§3) 4.2.1. Organisms and culture conditions […]
(§4) 4.2.2. Minimum inhibitory concentration assay
(§5) In 96-well microtiter plates and […] of fresh bacterial culture of a single McFarland unit overnight, a double serial dilution of each compound […] in sterile standard saline were prepared to every single source well. Ciprofloxacin antibiotic (5 mg / mL-1) and normal saline were included as standard reference in each assay. The plates were incubated at 37 0C overnight.
(§6) As an indicator of bacterial growth, […] of p -iodonitrotetrazolium violet (INT) was added to each well and incubated at 37 0C for 30 min. MIC values are recorded as the lowest concentration […]
(§7) tetrazolidium salt acts as an electron accepter and is reduced to a red colored formazan product by biological activity organisms. Where bacterial growth was inhibited, the solution in the well remained clear after incubation with INT. […]

[2] = test system: P. aeruginosa; assay: MIC by twofold serial dilution; format: cell-based, Pseudomonas aeuroginosa (ATCC 10145); settings: Pseudomonas aeruginosa; Gram-negative; read-out: Minimum inhibitory concentration (MIC), P. aeruginosa
Experimental: as §1
as §1, with “The” for “Table 5 presents the”, “the tested” for “these”, “bacteria were” for “bacteria, utilizing ciprofloxacin as the reference drug,”, “2022]). See Appendix A for more details.” for “2022]).”
as §2, §3, §4, §5, §6, §7

[3] = test system: HT-29 cells; assay: Antiproliferative MTT assay
Text: (§8) Dose-response assays determined the IC50 values for the novel compounds. We derived the reported data from a minimum of two separate experiments, each consisting of three repetitions per concentration.
Assay for antiproliferative effect

[4] = in vitro; settings: human, MCF-10A mammary gland epithelial cells (normal cell line)
[5] = test system: four cancer cell lines (A-549, MCF-7, Panc-1, HT-29); assay: Antiproliferative MTT assay, average over four cancer cell lines; settings: for GI50: read-out: Antiproliferative activity, Average (GI50)
Text: as §8
Assay for antiproliferative effect

[6] = test system: A-549 cells; assay: Antiproliferative MTT assay
Text: as §8
Assay for antiproliferative effect

[7] = biological target: VEGFR-2 (Homo sapiens, UniProt P35968); assay: VEGFR-2 inhibitory assay
VEGFR-2, sequence (P35968 20-1356): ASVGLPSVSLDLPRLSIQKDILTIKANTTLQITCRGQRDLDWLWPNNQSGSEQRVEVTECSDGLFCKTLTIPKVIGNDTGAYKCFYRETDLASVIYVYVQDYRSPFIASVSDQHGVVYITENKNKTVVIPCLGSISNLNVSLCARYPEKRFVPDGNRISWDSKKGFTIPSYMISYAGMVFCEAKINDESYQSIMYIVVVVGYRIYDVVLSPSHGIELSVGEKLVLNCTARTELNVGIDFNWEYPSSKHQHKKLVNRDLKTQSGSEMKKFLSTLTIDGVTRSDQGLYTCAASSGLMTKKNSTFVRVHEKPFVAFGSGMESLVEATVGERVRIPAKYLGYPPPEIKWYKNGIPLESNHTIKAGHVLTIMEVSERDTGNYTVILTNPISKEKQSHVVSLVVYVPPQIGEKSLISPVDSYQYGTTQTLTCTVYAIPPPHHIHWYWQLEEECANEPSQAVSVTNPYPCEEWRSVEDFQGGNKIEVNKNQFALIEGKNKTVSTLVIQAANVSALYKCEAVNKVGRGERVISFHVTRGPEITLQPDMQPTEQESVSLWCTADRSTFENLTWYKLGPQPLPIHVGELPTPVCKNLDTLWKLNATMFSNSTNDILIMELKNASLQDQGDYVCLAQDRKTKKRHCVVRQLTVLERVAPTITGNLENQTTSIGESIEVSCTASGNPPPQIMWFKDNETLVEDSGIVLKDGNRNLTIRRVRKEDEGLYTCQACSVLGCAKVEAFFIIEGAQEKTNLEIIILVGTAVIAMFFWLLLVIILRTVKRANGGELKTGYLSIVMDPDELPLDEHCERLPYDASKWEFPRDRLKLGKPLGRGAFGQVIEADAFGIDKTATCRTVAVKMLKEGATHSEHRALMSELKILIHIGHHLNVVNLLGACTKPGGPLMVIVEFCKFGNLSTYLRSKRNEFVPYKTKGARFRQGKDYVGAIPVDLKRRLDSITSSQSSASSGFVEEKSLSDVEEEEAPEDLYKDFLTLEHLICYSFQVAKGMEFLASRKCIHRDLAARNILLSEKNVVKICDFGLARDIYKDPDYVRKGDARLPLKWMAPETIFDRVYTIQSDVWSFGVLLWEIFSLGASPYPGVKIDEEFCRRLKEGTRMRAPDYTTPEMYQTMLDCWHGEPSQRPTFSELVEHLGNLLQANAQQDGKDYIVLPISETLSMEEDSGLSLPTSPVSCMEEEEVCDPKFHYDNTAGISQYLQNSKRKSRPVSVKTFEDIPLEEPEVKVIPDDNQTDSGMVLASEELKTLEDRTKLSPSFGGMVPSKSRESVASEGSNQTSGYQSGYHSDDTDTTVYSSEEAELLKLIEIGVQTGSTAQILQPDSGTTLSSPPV
Experimental: The outcomes are presented as IC50 values.
(§9) was added to each well followed by incubation of 1h and then washing of the plates using buffer.
(§10) The enhancement solution was added to each well and the signal was recorded at excitation and
(§11) The autophosphorylation percentage inhibition by compounds was calculated using the following equation:
Prepare all the solutions using autoclaved, deionized water and analytical grade reagents.
and store all the reagents at room temperature (unless indicated otherwise).
solution, add 5 mL ultra-pure water; 1×Kinase Assay Buffer: add 25 mL HEPES solution (1 M),
water, adjust pH to 7.5 and constant volume to 500 mL using ultrapure water; 4×Stop solution (40
mM): Mix 0.8 mL of the foregoing EDTA solution, 1 mL 10×Detection Buffer and 8.2 mL ultra-
pure water; 1×Detection Buffer: Mix 1 mL 10×Detection Buffer with 9 mL water; 4×VEGFR
μM) was added to 624 μL 1×Kinase Assay Buffer and mixed; 4×ULight™-labeled JAK1
(substrate) (200 nM, 25 times diluted): 24 μL ULight™-labeled JAK1 (mother liquor
concentration 5 μM) was added to 576 μL 1×Kinase Assay Buffer and mixed; 4×ATP Solution
(40 μM, 250 times diluted): add 3 μL ATP solution (10 mM) to 747 μL 1×Kinase Assay Buffer
2×substrate/ATP Mix: 560 μL foregoing 4×ULight™-labeled JAK1 and 560 μL 4×ATP solution
and mixed (prepared before use). The assays used an ULight-labeled peptide substrate and a
Europium-W1024-labeled antiphosphotyrosine antibody. The VEGFR-2 was purchased from
Carna Biosciences, Inc. (New York, USA). The 384-well plates were obtained from PerkinElmer.
5 μL 2×VEGFR-2 kinase solution (0.5 nM)
was added to 384-well plates homogeneous mixing and pre-reaction at room temperature for 30 min. Next, 2.5 μL 4×Ultra ULightTM-JAK-1(Tyr1023) Peptide (200 nM)/ATP (40 μM) was added to the corresponding wells of a 384-well plate. Negative control: 2.5 μL/well 4×substrate/ATP mixture and 7.5 μL 1×kinase assay buffer in 384-well plate well. Positive control:
μL/well 2×VEGFR-2 kinase solution was added to the 384-well plate, The final concentration of DMSO in the mixing system was 4%. After incubation at room temperature and dark for 60 min, 5 μL 4×stop solution was added to corresponding wells to react for 5 min and then 5 μL 4×detection mix was added to the corresponding wells of a 384-well plate. The mixture was centrifugally mixed and stayed for 60 min at room temperature for color development. The plate was read using a Envision plate reader. The inhibition rate (%) = (positive well reading-compound well reading)/(positive well reading-negative well reading)×100. The corresponding IC50 values were calculated using GraphPad Prism 5.0.

[8] = test system: MCF-7 cells; assay: Antiproliferative MTT assay
Text: as §8
Assay for antiproliferative effect

[9] = test system: B. subtilis; assay: MIC by twofold serial dilution; format: cell-based, Bacillus subtilis (ATCC 6051)
Experimental: as §1
as §1, with “The” for “Table 5 presents the”, “the tested” for “these”, “bacteria were” for “bacteria, utilizing ciprofloxacin as the reference drug,”, “2022]). See Appendix A for more details.” for “2022]).”
as §2, §3, §4, §5, §6, §7

[10] = biological target: E. coli DNA gyrase (Escherichia coli, UniProt P0AES6); assay: DNA gyrase supercoiling assay; format: biochemical
Experimental: 4.2.3. Determination of Inhibitory Activities on E. coli DNA Gyrase.
All the final compounds were tested for E. coli DNA gyrase inhibitory activity in a supercoiling assay. Activities were determined on streptavidin -coated 96-well microtiter plates from Thermo scientific Pierce. First, the plates were rehydrated with buffer (20 mM Tris -HCl with pH 7.6, 0.01% […]
immobilized. After washing off the unbound oligonucleotide, the enzyme test was performed. The reaction volume of 30 μL in buffer (35 mM Tris-HCl with pH 7.5, 4 mM MgCl 2, 24 mM KCl, 2 […]
1.5 U of DNA gyrase from E. coli or S. aureus, 0.75 μg of relaxed pNO1 plasmid, and 3 μL solution of the inhibitor in 1 0% DMSO and 0.008% Tween 20. Reaction solutions were incubated at 37 °C […]
for 30 min. After that, the TF buffer (50 mM NaOAc with pH 5.0, 50 mM NaCl and 50 mM MgCl2) was added to terminate the enzymatic reaction. After additional incubation for 30 min at rt, during which biotin-oligonucleotide-plasmid triplex was formed, the unbound plasmid was washed off using TF buffer and SybrGOLD in T10 buffer (10 mM Tris HCl wit h pH 8.0 and 1 mM EDTA) was added. The fluorescence was measured with a microplate reader (BioTek Synergy H4, excitation: 485 nm, emission: 535 nm). […]
tested compounds. GraphPad Prism software was used to calculate the IC50 values. The result is given as the average value of three independent measurements. […]

[11] = test system: Panc-1 cells; assay: Antiproliferative MTT assay
Text: as §8
Assay for antiproliferative effect

[12] = test system: E. coli; assay: MIC by twofold serial dilution; format: cell-based, Escherichia coli (ATCC 11775); settings: Escherichia coli; Gram-negative; read-out: Minimum inhibitory concentration (MIC), E. coli
Experimental: as §1
as §1, with “The” for “Table 5 presents the”, “the tested” for “these”, “bacteria were” for “bacteria, utilizing ciprofloxacin as the reference drug,”, “2022]). See Appendix A for more details.” for “2022]).”
as §2, §3, §4, §5, §6, §7

[13] = biological target: EGFR (Homo sapiens, UniProt P00533); assay: EGFR-TK inhibitory assay
EGFR, sequence (P00533 669-1210): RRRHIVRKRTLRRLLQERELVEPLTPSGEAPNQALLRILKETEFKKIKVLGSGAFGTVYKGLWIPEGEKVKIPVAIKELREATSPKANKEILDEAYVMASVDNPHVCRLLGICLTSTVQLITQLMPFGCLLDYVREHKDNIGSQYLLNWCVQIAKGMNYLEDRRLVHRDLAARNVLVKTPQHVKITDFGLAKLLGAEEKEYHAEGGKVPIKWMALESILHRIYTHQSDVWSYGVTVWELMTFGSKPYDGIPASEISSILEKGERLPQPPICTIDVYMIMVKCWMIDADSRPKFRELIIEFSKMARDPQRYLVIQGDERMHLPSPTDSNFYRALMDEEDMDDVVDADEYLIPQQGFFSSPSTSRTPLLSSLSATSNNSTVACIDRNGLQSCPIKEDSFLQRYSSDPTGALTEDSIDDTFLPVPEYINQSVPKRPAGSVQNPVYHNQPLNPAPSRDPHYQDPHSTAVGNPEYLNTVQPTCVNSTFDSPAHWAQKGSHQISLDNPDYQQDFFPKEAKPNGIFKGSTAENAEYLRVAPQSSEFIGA
Experimental: Baculoviral expression vectors including pBlueBacHis2B and pFASTBacHTc were used
5ʹ upstream to the EGFR sequence comprised a sequence that encoded (His)6. Sf-9 cells were infected for 72h for protein expression. The pellets of Sf-9 cells were solubilized in a buffer containing sodium vanadate (100 μM), aprotinin (10 μg/mL), triton (1%), HEPES buffer(50mM), ammonium molybdate (10 μM), benzamidine HCl (16 μg/mL), NaCl (10 mM),leupeptin (10 μg/mL) and pepstatin (10 μg/mL) at 0°C for 20 min at pH 7.4, followed by centrifugation for 20 min. To eliminate the nonspecifically bound material, a Ni-NTA super flow packed column was used to pass through and wash the crude extract supernatant first with 10mM and then with 100 mM imidazole. Histidine-linked proteins were first eluted with 250 and then with 500 mM imidazole subsequent to dialysis against NaCl (50 mM), HEPES (20 mM), glycerol (10%) and 1 μg/mL each of aprotinin, leupeptin and pepstatin for 120 min. The purification was performed either at 4 °C or on ice. To record autophosphorylation level, EGFR kinase assay was carried out on the basis of DELFIA/Time-Resolved Fluorometry. The compounds were first
dissolved in DMSO absolute, subsequent to dilution to appropriate concentration using HEPES
(25 mM) at pH 7.4. Each compound (10 μL) was incubated with recombinant enzyme (10 μL, 5
ng for EGFR, 1:80 dilution in 100 mM HEPES) for 10 min at 25 °C, subsequent to the addition of
5X buffer (10 μL, containing 2 mM MnCl2, 100 μM Na3VO4, 20 mM HEPES and 1 mM DTT)
and ATP-MgCl2 (20 μL, containing 0.1 mM ATP and 50 mM MgCl2) and incubation for 1h. The
negative and positive controls were included in each plate by the incubation of enzyme either with
or without ATP-MgCl2. The liquid was removed after incubation and the plates were washed
thrice using a wash buffer. The Europium-tagged antiphosphotyrosine antibody (75 μL, 400 ng)
as §9, §10, §11
calculated. The majority of signals detected by antiphosphotyrosine antibody were from EGFR because the enzyme preparation contained low impurities.

[14] = biological target: S. aureus topoisomerase IV; settings: read-out: IC50 for S. aureus topoisomerase IV (internal standard value); value stated in the supplementary method, no reference given; cited from earlier work
[15] = test system: MCF-10A cells; settings: 50 µM

Cc1nc(SCC(=O)c2cc3cc(Br)ccc3oc2=O)sc1C(=O)/C=C/c1ccc(Cl)cc1 [Compound 11e, (E)-6-Bromo-3-(2-((5-(3-(4-chlorophenyl)acryloyl)-4-methylthiazol-2-yl)thio)acetyl)-2H-chromen-2-one]
MIC [1]: 0.027 ± 0.001 µM (≈ 0.0151 µg/mL)
MIC [2]: 0.053 ± 0.003 µM (≈ 0.0297 µg/mL)
IC50 ([3]; Homo sapiens, HT-29, read-out: Antiproliferative activity IC50 ± SEM, HT-29): 42 ± 2 nM
viability at 96 h, 50 µM [4]: 91%
Fold less potent than compound 11f (GI50) [5]: 1.5 fold
GI50 ([5]; Homo sapiens): 41 nM
IC50 ([6]; Homo sapiens, A549, read-out: Antiproliferative activity IC50 ± SEM, A-549): 37 ± 2 nM
IC50 [7]: 4900 ± 30 nM
IC50 ([8]; Homo sapiens, MCF7, read-out: Antiproliferative activity IC50 ± SEM, MCF-7): 43 ± 2 nM
Fold less efficient than ciprofloxacin (MIC), B. subtilis [9]: 2.2 fold
MIC ([9]; Bacillus subtilis, Gram-positive, read-out: Minimum inhibitory concentration (MIC), B. subtilis): 0.022 ± 0.001 µM (≈ 0.0123 µg/mL)
IC50 [10]: 190 ± 13 nM
IC50 ([11]; Homo sapiens, PANC-1, read-out: Antiproliferative activity IC50 ± SEM, Panc-1): 40 ± 2 nM
MIC [12]: 0.048 ± 0.003 µM (≈ 0.0269 µg/mL)
IC50 [13]: 89 ± 4 nM

CO[C@@H]1[C@@H](OC(N)=O)[C@@H](O)[C@H](Oc2ccc3c(O)c(NC(=O)c4ccc(O)c(CC=C(C)C)c4)c(=O)oc3c2C)OC1(C)C [Novobiocin]
IC50 [14]: 26700 nM

(E)-3-(2-((5-(3-(4-Methoxyphenyl)acryloyl)-4-methylthiazol-2-yl)thio) acetyl)-2H-chromen-2-one [Compound 11c]
IC50 ([3]; read-out: Antiproliferative activity IC50 ± SEM, HT-29, colon cancer HT-29, MTT): 57 ± 4 nM
Cell viability % [15]: 90%
Fold less potent than compound 11f (GI50) [5]: twofold
GI50 ([5]; average IC50 over the four cancer cell lines): 55 nM
IC50 ([6]; read-out: Antiproliferative activity IC50 ± SEM, A-549, lung cancer A-549, MTT): 52 ± 4 nM
IC50 ([8]; read-out: Antiproliferative activity IC50 ± SEM, MCF-7, breast cancer MCF-7, MTT): 56 ± 4 nM
RA (residual activity of the enzyme), E. Coli DNA gyrase ([10]; at 1 μM of compound): 68%
IC50 ([11]; read-out: Antiproliferative activity IC50 ± SEM, Panc-1, pancreatic cancer Panc-1, MTT): 54 ± 4 nM

— paper PMC12088962, “Design, synthesis, and biological investigation of new thiazole-based derivatives as multi-targeted inhibitors endowed with antiproliferative, antioxidant, and antibacterial properties” (Frontiers in Chemistry, 2025)
